# In patent US20220281930A1, “COMPOSITIONS AND METHODS FOR THE TREATMENT OF PATHOLOGICAL PAIN AND ITCH” (DUKE UNIVERSITY, priority 2019, published 2022):
# Test system: intracellular chloride ([Cl—]i)
# Test: Secondary screen: Clomeleon chloride imaging in primary mouse neurons
# Format: cell-based
# Design: chloride reduction (%): concentration or dose not given beside the values
# Protocol: The primary screen encompassed three levels of LUC measurements. The first level of screening yielded a total of 137 compounds with cut-off RLU>125% LUC activity. These 137 compounds were subject to second round of screening, which was carried out in duplicate independent assays to yield the top 103 compounds sorted for highest RLU. The 103 compounds were then subjected to a third round of screening carried out in duplicate independent assays to yield the top 40 compounds which were again ranked. The best 22 of these 40 compounds (ranked for highest RLU activity) were subjected to secondary screening: Cultured neurons were treated with the 22 compounds; RT-qPCR and Clomeleon imaging methodologies (Yeo et al., 2009, J Neurosci 29:14652-14662) were used to determine effects of compounds on KCC2 mRNA expression and [Cl—]i, respectively. Each compound was ranked based on composite scores from primary and secondary screening.
# Chloride imaging of primary cultured cortical neurons was conducted as previously described (Kuner and Augustine, 2000, Neuron 27:447-459; Liedtke et al., 2013, Small 9:1066-1075; Yeo et al., 2009, J Neurosci 29:14652-14662). A Clomeleon expression plasmid was transfected into primary cortical neurons by electroporation (Amaxa Nucleofector Device). Transfected neurons were verified by yellow fluorescent protein (YFP) fluorescence, and ratiometric images (excitation at λ=434 nm, dual emission at λ=485 and 535 nm; for resting chloride, six stable frames at […] were captured, which were averaged) were acquired using RATIOTOOL program. Calibration of Clomeleon signals (535 nm/485 nm emission ratio) was performed by using tributyltin-nigericin to establish a standard curve, which was then normalized for measured intraneuronal pH to take into account the pH sensitivity of Clomeleon.
# To identify KCC2 gene expression enhancing compounds, cultured primary cortical neurons were cultured from KCC2-luciferase(LUC)-knockin (KCC2-LUCki) mice (Liedtke et al., 2013, Small 9:1066-1075; Yeo et al., 2013, Proc Natl Acad Sci USA 110:4315-4320) and used LUC metrics as readout for activity of the proximal KCC2 promoter (2.5 kB (Yeo et al., 2009, J Neurosci 29:14652-14662)), which drives LUC in this mouse transgenic line. A Z′ factor of 0.94 was obtained. This strategy will not select for long-range enhancers of KCC2 gene expression that act outside the 2.5 kB core KCC2 promoter. 1057 compounds, contained in two NCI libraries (FIG. 1), related to inhibition of growth of malignantly transformed cells were screened. Iterative screening followed by measurements of KCC2 mRNA (RT-qPCR) and intracellular chloride ([Cl—]i), using clomeleon chloride indicator protein (Kuner and Augustine, 2000, Neuron 27:447-459; Yeo et al., 2009, J Neurosci 29:14652-14662), led to decreasing numbers of confirmed and re-confirmed hits, and 4 “winner” compounds were selected (FIG. 1 and Table 3).
compound,measurement,setting,value
"O=C1Cc2c([nH]c3ccc(Br)cc23)-c2ccccc2N1 [kenpaullone, 9-bromo-7,12-dihydro-indolo [3,2-d] [1]benzazepin-6(5H)-one]",Clomeleon Score (duplicates),"Natural Compounds, rank score",2
same,chloride reduction (%),from the [Cl—]i pair of the same line,33.8%
same,chloride [Cl—]i mM,"value after compound, control => treated",68 => 23 mM
